One data set deals with mice. Description: hypnotic activity: loss of righting reflex after intravenous administration in mice. The data set is classed as in vivo. The note with it: Mus musculus, iv, dose causing loss of righting reflex for minimum 30 seconds in 50% of mice, intravenous injection over 10 seconds; read-out: HD50 (the source's name). How it is done:
The hypnotic potency of the α-amino acid phenyl ester derivatives of the invention was determined upon their intravenous administration in mice. The dose required to cause a loss of righting reflex for a minimum period of 30 seconds in 50% of treated mice after intravenous injection over 10 seconds was determined. This dose is termed the HD50 (hypnotic dose50) and is expressed in μmol.kg^−1.

The target in another data set is GABAA receptors. Kind of data set: inhibition of [35S]-TBPS binding to rat whole brain membranes. The note with it: concentration required to inhibit 50% of [35S]-TBPS binding. The source says:
γ-Aminobutyric acid (GABA) is the major inhibitory neurotransmitter within the central nervous system and it is probable that compounds potentiating the effects of GABA at GABAA receptors will induce anaesthesia (S. A. Zimmerman, M. V. Jones and N. L. Harrison, J. Pharmacol. Exp. Therap. 1994, 270, 987-991; N. P. Franks and W. R. Lieb, Nature 1994, 367, 607-614). Indeed there is compelling evidence that many hypnotics exert their biological activity via modulation of GABAA receptors, including steroids, barbiturates, benzodiazepines and propofol (D. L. Tanelian, P. Kosek, I. Mody and M. B. Maclver, Anesthesiology 1993, 78, 757-776).
The in vitro effect of the compounds of the invention at GABAA receptors was assessed through determination of their ability to inhibit [^35S]-TBPS ([^35S]-tert-butyl bicyclophosphorothionate) binding to rat whole brain membranes. The concentration of α-amino acid phenyl ester derivative required to inhibit 50% of binding of [^35S]-TBPS was determined. These in vitro experiments were carried out as described in detail by Anderson et al., J.Med.Chem. 1997, 40, 1668-1681.

The source of these data is patent US6451854B1, “α-amino acid phenyl ester derivatives” (Akzo Nobel N.V., priority 1998, dated 2002).

Structures can show the parent of a compound that is named as a salt.

`COCCN(CCOC)C(C)C(=O)Oc1c(OC)cccc1OC` (racemic) (as salt: hydrochloride) [Example 7f, (±)-2-[N-bis(2-methoxyethyl)amino]propionic acid, 2,6-dimethoxyphenyl ester hydrochloride (1:1) salt]: the melting point (as a rule, the temperature of the solid-liquid transition) lay in the range of 114 to 116 °C.
As for `CCOCCN(CCOCC)[C@H](CC)C(=O)Oc1c(OC)cccc1OC` [Example 7z, R-(+)-2-[N-bis(2-ethoxyethyl)amino]butyric acid, 2,6-dimethoxyphenyl ester hydrochloride (1:1) salt], the ED50 in the data set with mice was determined as 19 µmol/kg. For the same compound, the IC50 (usually the midpoint of a concentration-inhibition curve) at GABAA receptors was determined as 18 µM.
In the case of `CCN(CC)C(C)C(=O)Oc1c(OC)cc(C)cc1OC` (racemic) [Example 7j, (±)-2-[diethylamino]propionic acid, 2,6-dimethoxy-4-methylphenyl ester hydrochloride (1:1) salt], the ED50 in the data set on mice worked out at 43 µmol/kg. Besides, the IC50 at GABAA receptors was < 50 µM.
Turning to `COCCN(CCOC)C(C)C(=O)Oc1c(OC)cc(C)cc1OC` (racemic) [Example 7e, (±)-2-[N-bis(2-methoxyethyl)amino]propionic acid, 2,6-dimethoxy-4-methylphenyl ester hydrochloride (1:1) salt], in the data set on mice, the ED50 worked out at 52 µmol/kg. Also, the IC50 on GABAA receptors is < 100 µM.
In the case of `CCC(C(=O)Oc1c(OC)cccc1OC)N(C)Cc1ccccc1` (racemic) [Example 7k, (±)-2-[N-methylbenzylamino]butyric acid, 2,6-dimethoxyphenyl ester hydrochloride (1:1) salt], the ED50 in the data set on mice was determined as 40 µmol/kg. Moreover, the IC50 at GABAA receptors came to 13 µM.
On to `CCC(C(=O)Oc1c(OC)cc(C)cc1OC)N(CCOC)CCOC` (racemic) [Example 7b, (±)-2-[N-bis(2-methoxyethyl)amino]butyric acid, 2,6-dimethoxy-4-methylphenyl ester hydrochloride (1:1) salt], for which the ED50 in the data set with mice was found to be 22 µmol/kg. Further, at GABAA receptors, the IC50 was found to be 18 µM.
Regarding `COCCN(CCOC)C(C(=O)Oc1c(OC)cccc1OC)C(C)C` (racemic) [Example 7u, (±)-3-methyl-2-[N-bis(2-methoxyethyl)amino]butyric acid, 2,6-dimethoxyphenyl ester hydrochloride (1:1) salt], in the data set on mice, the ED50 was found to be 27 µmol/kg. Also, the IC50 at GABAA receptors came to 100 µM.
Turning to `COCCN(CCOC)C(C)C(=O)Oc1c(OC)cc(C)cc1OC` (racemic) (as salt: hydrochloride) [Example 7e, (±)-2-[N-bis(2-methoxyethyl)amino]propionic acid, 2,6-dimethoxy-4-methylphenyl ester hydrochloride (1:1) salt], the melting point was in the range of 96 to 97 °C.
